Test results reported in US5059438A, “Compositions and methods for inhibiting browning in foods using resorcinol derivatives” (Enzytech, Inc., priority 1990, dated 1991).

Experiments:
[1] = test system: McIntosh apples, browning; test: Inhibition of browning in apples by Formula V and YM5 eluate; settings: lactose 9.0%, 1,4-diaminobutane 5 mM
Experimental: Two fresh and unbruised whole McIntosh apples, held at ambient temperature,were sliced with a stainless steel paring knife into quarters, cored, then cut into 1/4-inch slices. A volume of 0.8 mL of each of the treatment solutions listed in Table 5 at ambient temperature was applied onto the top exposed surface of freshly cut white slices, triplicate samples per treatment. […] Following application, the slices stood at ambient temperature, exposed to air and light, for periodic visual observation of relative rate and extent of browning, from 15 minutes to 4 hours.

[2] = test system: PPO (mushroom); test: Inhibition of PPO by various resorcinol derivatives (linear spectrophotometric assay); type: biochemical; settings: 0.133 mM L-DOPA, pH 6.5, 25° C., 475 nm, read-out: I50 (apparent inhibition constant)
Experimental: In order to determine the effect of various resorcinol compounds on the inhibition of PPO (mushroom), a linear spectrophotmetric assay system similar to that described in Example 1 was used. The assay mixture consisted of:
5 mM sodium phosphate, pH 6.5;
0.133 mM L-dihydroxyphenylalanine (L-DOPA); PPO (mushroom); and
+/- varied concentrations of the compound to be tested
The rate of the reaction was monitored by measuring the change in absorbance per minute at 475 nm at 25° C.
I50 represents the concentration of inhibitor necessary to obtain fifty (50%) percent inhibition of the enzyme.

[3] = test system: pink shrimp melanosis; test: Effect of 4-hexylresorcinol, Formula VI and Formula IV compounds on development of shrimp melanosis; parameters: species or system Penaeus duorarum
Experimental: In one embodiment of the present invention, pink shrimp were treated with an aqueous solution of the compound of Formula II. Formula II was used at concentrations ranging from 0.0001 to 0.005%, and compared to shrimp treated with sodium bisulfite and sea water. The sea water treated shrimp developed melanosis spots within 1-2 days. […] A concentration of up to about 0.1% of Formula II can be used for inhibiting browning.
Harvests were arranged such that fresh, heads-on pink shrimp were obtained within less than 12 hours post-harvest at the dock. All shrimp were routinely washed on-board and temporarily stored in ice. The basic procedure was to rinse 400-600 grams of shrimp in 2.5 liters of variable dip compositions and concentrations for 1 minute then drain and package in plastic bags to be stored in ice. The bags were considered necessary to eliminate the variable influence of melting ice. Iced containers with packaged shrimp were stored in 35° F. (1.7° C.) refrigeration with reicing every other day.
Development of melanosis was scored and photographed routinely during 2 weeks of storage. The bags of shrimp had been numbered such that the investigator could not distinguish amongst the various treatments. One experienced investigator did all scoring relative to the aforementioned scale (Table 2). The scale was accompanied by pre-developed color prints depicting common examples of the advancing stages for melanosis. The intent was to screen for obvious differences between treatments, thus selecting the best treatments for subsequent tests with statistical evaluations.
Pink shrimp were treated and evaluated as described in Example 8 except that the compound of Formula II (4-hexylresorcinol, Sigma Chemical Co.) was substituted for the Formula V compound. Pink shrimp were dipped into solutions of 0.0001-0.005% of the Formula II compound and stored as described above.
Pink shrimp were treated and evaluated as described in Example 8 except that the compound of Formula VI (see Example 6) was substituted for the Formula V compound. Pink shrimp were dipped into solutions of 0.001-0.025%of the Formula VI compound and stored as described above.
Pink shrimp were treated and evaluated as described in Example 8 except that the compound of Formula IV (2,4-dihydroxyphenylpropionic acid) was substituted for the Formula V compound. Pink shrimp were dipped into solutions of 0.001-0.1% the Formula IV compound and stored as described above.

[4] = test system: fresh pink shrimp (Penaeus duorarum) melanosis; test: Effect of Formula V compound on fresh pink shrimp melanosis
Experimental: Pink shrimp (Penaeus duorarum) were treated and evaluated as described in Example 8 except that the experiment was carried out on a shrimp boat with freshly caught shrimp. The shrimp were not frozen prior to treatment with various concentrations of the compound of Formula V. All solutions were prepared in sea water.
Fresh pink shrimp were treated and evaluated as described in Example 12. The shrimp treated with 0.025% of the compound of Formula V were stored directly or following a sea water rinse, post-treatment.
Fresh pink shrimp were treated and evaluated as described in Example 12. The shrimp were dipped in a 0.01% solution of the compound of Formula V made up in either sea or fresh water.
Fresh pink shrimp were treated and evaluated as described in Example 12. In this example, different one pound batches of shrimp were dipped into the same one liter solution of 0.01% of the Formula V compound for one minute each. A total of eight dips were performed.

[5] = test system: PPO in peaches; settings: Wong et al. 1971; cited from earlier work
[6] = test system: mushroom PPO (catecholase); settings: Kuttner and Wagreich 1952; cited from earlier work

NCCCCN [1,4-diaminobutane]
prevention of browning of apples, conclusion [1]: did not prevent browning

O=C(O)c1ccc(O)cc1O [4-Carboxyresorcinol, 2,4-Dihydroxybenzoic Acid]
IC50 [2]: 150 µM

Oc1ccc(C2CCCCC2)c(O)c1 [4-Cyclohexylresorcinol]
IC50 [2]: 0.2 µM

CCCCCCCCCCCCc1ccc(O)cc1O [4-Dodecylresorcinol]
IC50 [2]: 0.3 µM

CCc1ccc(O)cc1O [4-Ethylresorcinol]
IC50 [2]: 0.8 µM

CCCCCC(=O)c1ccc(O)cc1O [4-Hexanoylresorcinol]
IC50 [2]: 750 µM

CCCc1ccc(O)cc1O [4-n-Propylresorcinol]
IC50 [2]: 1.8 µM

CCCCCCc1ccc(O)cc1O [Formula II, 4-hexylresorcinol]
IC50 [2]: 0.5 µM
inhibiting browning of shrimp on a weight basis vs sodium bisulfite ([3]; 0.0001 to 0.005% (FIG. 10)): more effective on a weight basis than sodium bisulfite
inhibiting shrimp melanosis vs sodium bisulfite ([3]; 0.005% by weight vs 1.25% by weight bisulfite (FIG. 10)): almost as effective in inhibiting shrimp melanosis as a solution of 1.25% by weight bisulfite
lowest concentration inhibiting formation of shrimp melanosis (potent inhibitor at concentrations as low as) ([3]; FIG. 10, tested 0.0001-0.005%): 0.0005%

O=C(O)CCc1ccc(O)cc1O [Formula IV, 2,4-dihydroxyphenylpropionic acid]
lowest concentration inhibiting formation of shrimp melanosis (inhibitor at concentrations as low as) ([3]; FIG. 12, tested 0.001-0.1%): 0.05%

NCCCCNC(=O)CCc1ccc(O)cc1O [Formula V, 2,4-dihydroxyphenylpropionyldiaminobutane]
effect of fresh or sea water as solvent on inhibition of shrimp melanosis (FIG. 8) ([4]; 0.01%): no significant effect
effect of post-treatment sea water rinse on inhibition of shrimp melanosis (FIG. 7) ([4]; 0.025%): no significant effect

O=C(CCc1ccc(O)cc1O)NCCCCNC(=O)CCc1ccc(O)cc1O [Formula VI, bis-2,4-dihydroxyphenylpropionyldiaminobutane]
IC50 [2]: 5 µM
lowest concentration inhibiting formation of shrimp melanosis (potent inhibitor at concentrations as low as) ([3]; FIG. 11, tested 0.001-0.025%): 0.005%

O=C(CCc1ccc(O)cc1O)NCCCCNCCCNC(=O)CCc1ccc(O)cc1O [Formula VII, bis-2,4-dihydroxyphenylpropionylspermidine]
IC50 [2]: 5 µM

OC[C@H]1O[C@@H](O[C@H]2[C@H](O)[C@@H](O)C(O)O[C@@H]2CO)[C@H](O)[C@@H](O)[C@H]1O (stereo partly shown) [Lactose]
prevention of browning of apples, conclusion [1]: did not prevent browning

Oc1cccc(O)c1 [Resorcinol, 1,3-dihydroxybenzene]
reaction with 4-methyl-o-quinone formed by PPO in peaches [5]: react with 4-methyl-o-quinone
substrate for PPO [5]: not substrates for PPO
IC50 [2]: 2700 µM

O=C(O)c1ccccc1 [benzoic acid]
inhibition of mushroom PPO (catecholase) [6]: inhibited

Oc1cc(O)c2c(c1)O[C@H](c1ccc(O)c(O)c1)[C@@H](O)C2 [d-catechin]
reaction with 4-methyl-o-quinone formed by PPO in peaches [5]: react with 4-methyl-o-quinone
substrate for PPO [5]: not substrates for PPO

Cc1cc(O)cc(O)c1 [orcinol]
reaction with 4-methyl-o-quinone formed by PPO in peaches [5]: react with 4-methyl-o-quinone
substrate for PPO [5]: not substrates for PPO

Oc1cc(O)cc(O)c1 [phloroglucinol]
reaction with 4-methyl-o-quinone formed by PPO in peaches [5]: react with 4-methyl-o-quinone
substrate for PPO [5]: not substrates for PPO
